For eleven compounds, IC50 results are on record in patent US11524966B1 (Valo Early Discovery, Inc., priority 2017, dated 2022).

Molecules are shown by their SMILES.

Usually IC50 stands for the concentration at which inhibition is half-maximal.

In this assay the target is T1, USP25 (USP25-His6, Boston Biochem E-546) (Homo sapiens, UniProt Q9UHP3).
T1 construct: His6; purchased Boston Biochem E-546
T1 sequence (Q9UHP3 1-1055): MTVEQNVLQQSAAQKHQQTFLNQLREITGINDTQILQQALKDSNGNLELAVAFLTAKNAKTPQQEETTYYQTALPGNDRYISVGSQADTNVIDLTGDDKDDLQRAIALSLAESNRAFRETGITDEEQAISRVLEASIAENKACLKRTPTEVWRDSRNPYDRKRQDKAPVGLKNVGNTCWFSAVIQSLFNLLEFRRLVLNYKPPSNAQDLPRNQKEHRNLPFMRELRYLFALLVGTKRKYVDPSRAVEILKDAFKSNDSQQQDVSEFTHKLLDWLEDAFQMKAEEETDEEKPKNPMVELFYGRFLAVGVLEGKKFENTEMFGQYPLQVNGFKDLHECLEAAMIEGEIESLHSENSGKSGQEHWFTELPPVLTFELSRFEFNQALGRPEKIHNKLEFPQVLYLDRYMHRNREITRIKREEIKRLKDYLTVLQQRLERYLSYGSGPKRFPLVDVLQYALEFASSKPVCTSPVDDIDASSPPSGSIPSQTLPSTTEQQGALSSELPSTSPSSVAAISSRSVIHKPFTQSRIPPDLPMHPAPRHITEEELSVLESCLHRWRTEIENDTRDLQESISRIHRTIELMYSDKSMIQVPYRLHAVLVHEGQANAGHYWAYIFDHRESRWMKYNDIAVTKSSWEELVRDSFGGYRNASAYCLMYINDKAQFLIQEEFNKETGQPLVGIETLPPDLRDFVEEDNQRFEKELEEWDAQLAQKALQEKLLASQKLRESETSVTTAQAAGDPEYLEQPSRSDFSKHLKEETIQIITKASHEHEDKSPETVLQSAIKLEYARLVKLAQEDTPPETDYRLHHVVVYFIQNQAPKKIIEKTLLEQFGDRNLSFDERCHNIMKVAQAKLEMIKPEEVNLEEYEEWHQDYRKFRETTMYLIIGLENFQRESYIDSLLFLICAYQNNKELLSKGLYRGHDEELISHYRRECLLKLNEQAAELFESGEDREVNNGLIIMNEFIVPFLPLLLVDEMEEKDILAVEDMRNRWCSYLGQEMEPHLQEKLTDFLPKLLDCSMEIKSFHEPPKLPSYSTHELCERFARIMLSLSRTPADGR
Description: Ubiquitin-Rhodamine 110 Assay for USP25 Activity, Example A-2. The format is biochemical. The following applies: Ubiquitin-Rhodamine 110 assay, Example A-2; read-out: USP25 A-2 IC50 range. An outline of the steps:
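Steps: compound dilutions (top 25 μM, 3-fold, 10 points) were preincubated 30 min with 75 pM USP25-His6; 25 nM Ub-Rh110 substrate was added under initial-velocity conditions; after 45 min at room temperature, 10 mM citric acid stopped the reaction before fluorescence reading.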
Regarding `Cc1ccc2c(N)c(C(=O)N[C@H]3CCc4cc(N5CC6CNCC(C5)O6)c(C#N)cc4C3)sc2n1` [Example 109, 3-amino-N-[(2S)-7-cyano-6-{9-oxa-3,7-diazabicyclo[3.3.1]nonan-3-yl}-1,2,3,4-tetrahydronaphthalen-2-yl]-6-methylthieno[2,3-b]pyridine-2-carboxamide], the half-maximal inhibitory concentration (IC50) was 200 to 2000 nM.
Under `CO[C@@H]1CN(c2ccc3c(c2)CC[C@H](NC(=O)c2sc4nc(C)ccc4c2N)C3)C[C@@H]1N` [Example 143, 3-amino-N-[(2S)-6-[(3S,4R)-3-amino-4-methoxypyrrolidin-1-yl]-1,2,3,4-tetrahydronaphthalen-2-yl]-6-methylthieno[2,3-b]pyridine-2-carboxamide] stands 200 to 2000 nM; under `CCn1ccc2cc(C(=O)N[C@H]3CCc4cc(N5C[C@H](OC)[C@@H](N)C5)ccc4C3)cnc21` [Example 132, N-[(2S)-6-[(3S,4S)-3-amino-4-methoxypyrrolidin-1-yl]-1,2,3,4-tetrahydronaphthalen-2-yl]-1-ethyl-1H-pyrrolo[2,3-b]pyridine-5-carboxamide], greater than 2000 nM; under `Cc1ccc2c(N)c(C(=O)N[C@H]3COc4cc(N5C[C@@H]6OCCN[C@@H]6C5)ccc4C3)sc2n1` [Example 154, N-[(3R)-7-[(4aR,7aS)-octahydropyrrolo[3,4-b]morpholin-6-yl]-3,4-dihydro-2H-1-benzopyran-3-yl]-3-amino-6-methylthieno[2,3-b]pyridine-2-carboxamide], 200 to 2000 nM.
`Cc1ccc2c(N)c(C(=O)N[C@H]3CCc4c(ccc(N5CC6CNCC(C5)O6)c4C#N)C3)sc2n1` [Example 102, 3-amino-N-[(2S)-5-cyano-6-{9-oxa-3,7-diazabicyclo[3.3.1]nonan-3-yl}-1,2,3,4-tetrahydronaphthalen-2-yl]-6-methylthieno[2,3-b]pyridine-2-carboxamide]: the IC50 lay in the range of 50 to 200 nM.
Take `Cc1ccc2c(N)c(C(=O)N[C@H]3COc4cc(N5CC6CNCC(C5)O6)c(C#N)c(F)c4C3)sc2n1` [Example 127, 3-amino-N-[(3R)-6-cyano-5-fluoro-7-{9-oxa-3,7-diazabicyclo[3.3.1]nonan-3-yl}-3,4-dihydro-2H-1-benzopyran-3-yl]-6-methylthieno[2,3-b]pyridine-2-carboxamide]: the 50% inhibitory concentration (IC50) was in the range of 50 to 200 nM.
In the case of `COC[C@H]1CN(c2ccc3c(c2)OC[C@H](NC(=O)c2sc4nc(C)ccc4c2N)C3)CCN1` [Example 157, 3-amino-N-[(3R)-7-[(3R)-3-(methoxymethyl)piperazin-1-yl]-3,4-dihydro-2H-1-benzopyran-3-yl]-6-methylthieno[2,3-b]pyridine-2-carboxamide] it was 200 to 2000 nM; in that of `CO[C@@H]1CN(c2ccc3c(c2)OC[C@H](NC(=O)c2sc4nc(C)ccc4c2N)C3)CC[C@H]1N` [Example 129, 3-amino-N-[(3R)-7-[(3R,4R)-4-amino-3-methoxypiperidin-1-yl]-3,4-dihydro-2H-1-benzopyran-3-yl]-6-methylthieno[2,3-b]pyridine-2-carboxamide], 200 to 2000 nM; in that of `CO[C@H]1CN(c2cc(F)c3c(c2)CC[C@@H](NC(=O)c2sc4nc(C)ccc4c2N)C3)C[C@@H]1N` [Example 137, 3-amino-N-[(2R)-6-[(3S,4S)-3-amino-4-methoxypyrrolidin-1-yl]-8-fluoro-1,2,3,4-tetrahydronaphthalen-2-yl]-6-methylthieno[2,3-b]pyridine-2-carboxamide], greater than 2000 nM.
In the case of `Cc1ccc2c(N)c(C(=O)N[C@H]3COc4nc(N5CC6CNCC(C5)C6(F)F)ccc4C3)sc2n1` [Example 113, 3-amino-N-[(3R)-7-{9 9-difluoro-3,7-diazabicyclo[3.3.1]nonan-3-yl}-2H b,3H,4H-pyrano[2,3-b]pyridin-3-yl]-6-methylthieno[2,3-b]pyridine-2-carboxamide] it was 200 to 2000 nM; in that of `Cc1ccc2c(N)c(C(=O)N[C@H]3COc4c(ccc(N5CC6CNCC(C5)O6)c4F)C3)sc2n1` [Example 105, 3-amino-N-[(3R)-8-fluoro-7-{9-oxa-3,7-diazabicyclo[3.3.1]nonan-3-yl}-3,4-dihydro-2H-1-benzopyran-3-yl]-6-methylthieno[2,3-b]pyridine-2-carboxamide], 1 to 50 nM.
